Patent publication US9695155B2, “Herbicidal substituted pyrimidinyloxy benzene compounds” (E. I. DU PONT DE NEMOURS AND COMPANY, priority 2013, dated 2017)

Assays:
wild oat = assay: Test D postemergence; assay type: in vivo, Avena fatua; settings: Avena fatua, post-emergence, scale 0 to 100 (0 no effect, 100 complete control), read-out: Plant response rating, Oat, Wild
How it was run: (§1)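 In a controlled growth environment, treated and control plants were held 7 to 21 days, then compared visually. Damage was scored 0–100, where 100 means complete control. Sprays contained surfactant in a non-phytotoxic solvent; post-applied plants were at the 1- to 4-leaf stage.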

winter barley [1] = assay: Test D preemergence; assay type: in vivo, Hordeum vulgare; settings: Hordeum vulgare, pre-emergence, scale 0-100, read-out: Plant response rating, Barley, Winter
How it was run: as §1

spring barley [2] = assay: Test D preemergence; assay type: in vivo, Hordeum vulgare; settings: Hordeum vulgare, pre-emergence, scale 0-100, read-out: Plant response rating, Barley, Spring
How it was run: as §1

chickweed [3] = assay: Test D preemergence; assay type: in vivo, Stellaria media; settings: Stellaria media, pre-emergence, scale 0-100, read-out: Plant response rating, Chickweed
How it was run: as §1

barnyardgrass = assay: Test E postemergence; assay type: in vivo, Echinochloa crus-galli; settings: Echinochloa crus-galli, post-emergence, read-out: Plant response rating, Barnyardgrass
How it was run: (§2)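 Compound in a non-phytotoxic solvent mixture with surfactant was applied preemergence to seeds in silt loam soil, or postemergence to plants 2 to 18 cm tall grown in peat-based potting medium. Plants were kept in a greenhouse for 14 to 21 days, then rated visually against untreated controls on a 0 (no effect) to 100 (complete control) scale.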

field bindweed = assay: Test E postemergence; assay type: in vivo, Convolvulus arvensis; settings: Convolvulus arvensis, post-emergence, read-out: Plant response rating, Field Bindweed
How it was run: as §2

hairy beggarticks = assay: Test E postemergence; assay type: in vivo, Bidens pilosa; settings: Bidens pilosa, post-emergence, read-out: Plant response rating, Beggarticks
How it was run: as §2

wild buckwheat = assay: Test D preemergence; assay type: in vivo, Polygonum convolvulus; settings: Fallopia convolvulus, pre-emergence, scale 0-100, read-out: Plant response rating, Buckwheat, Wild
How it was run: as §1

pigweed = assay: Test D preemergence; assay type: in vivo, Amaranthus retroflexus; settings: Amaranthus retroflexus, pre-emergence
How it was run: as §1

field poppy = assay: Test D preemergence; assay type: in vivo, Papaver rhoeas; settings: Papaver rhoeas, pre-emergence, scale 0-100, read-out: Plant response rating, Field Poppy
How it was run: as §1

winter barley [4] = assay: Test D postemergence; assay type: in vivo, Hordeum vulgare; settings: Hordeum vulgare, post-emergence, Postemergence, scale 0 to 100 (0 no effect, 100 complete control), read-out: Plant response rating, Barley, Winter
How it was run: as §1

spring barley [5] = assay: Test D postemergence; assay type: in vivo, Hordeum vulgare; settings: Hordeum vulgare, post-emergence, Postemergence, scale 0 to 100 (0 no effect, 100 complete control), read-out: Plant response rating, Barley, Spring
How it was run: as §1

chickweed [6] = assay: Test D postemergence; assay type: in vivo, Stellaria media; settings: Stellaria media, post-emergence, scale 0 to 100 (0 no effect, 100 complete control), read-out: Plant response rating, Chickweed
How it was run: as §1

[7] = Postemergence, 31 g ai/ha, scale 0 to 100
[8] = Postemergence, 62 g ai/ha, scale 0 to 100
[9] = Postemergence, 125 g ai/ha, scale 0 to 100
[10] = Postemergence, 250 g ai/ha, scale 0 to 100
[11] = postemergence, 16 g ai/ha, scale 0 to 100, 0 no effect, 100 complete control

N#Cc1cccc(Oc2ncc(Cl)cn2)c1-n1cc(C(F)(F)F)cn1 [Compound 58, 3-[(5-chloro-2-pyrimidinyl)oxy]-2-[4-(trifluoromethyl)-1H-pyrazol-1-yl]benzonitrile]
pest or weed control at 31 g/ha (wild oat; 31 g ai/ha): 30%
pest or weed control at 62 g/ha (wild oat; 62 g ai/ha): 35%
pest or weed control at 125 g/ha (wild oat; 125 g ai/ha): 35%
pest or weed control at 250 g/ha (wild oat; 250 g ai/ha): 55%
plant injury at 31 g/ha (winter barley [1]; 31 g ai/ha): 10%
plant injury at 62 g/ha (winter barley [1]; 62 g ai/ha): 35%
plant injury at 125 g/ha (winter barley [1]; 125 g ai/ha): 80%
plant injury at 250 g/ha (winter barley [1]; 250 g ai/ha): 100%
plant injury at 31 g/ha (spring barley [2]; 31 g ai/ha): 10%
plant injury at 62 g/ha (spring barley [2]; 62 g ai/ha): 50%
plant injury at 125 g/ha (spring barley [2]; 125 g ai/ha): 85%
plant injury at 250 g/ha (spring barley [2]; 250 g ai/ha): 100%
pest or weed control at 31 g/ha (chickweed [3]; 31 g ai/ha): 100%
pest or weed control at 62 g/ha (chickweed [3]; 62 g ai/ha): 100%
pest or weed control at 125 g/ha (chickweed [3]; 125 g ai/ha): 100%
pest or weed control at 250 g/ha (chickweed [3]; 250 g ai/ha): 100%
pest or weed control at 31 g/ha (barnyardgrass; [7]): 5%
pest or weed control at 62 g/ha (barnyardgrass; [8]): 20%
pest or weed control at 125 g/ha (barnyardgrass; [9]): 30%
pest or weed control at 250 g/ha (barnyardgrass; [10]): 70%
pest or weed control at 16 g/ha (barnyardgrass; [11]): 0%
pest or weed control at 31 g/ha (field bindweed; [7]): 60%
pest or weed control at 62 g/ha (field bindweed; [8]): 70%
pest or weed control at 125 g/ha (field bindweed; [9]): 70%
pest or weed control at 250 g/ha (field bindweed; [10]): 80%
pest or weed control at 16 g/ha (field bindweed; [11]): 50%
pest or weed control at 31 g/ha (hairy beggarticks; [7]): 65%
pest or weed control at 62 g/ha (hairy beggarticks; [8]): 80%
pest or weed control at 125 g/ha (hairy beggarticks; [9]): 90%
pest or weed control at 250 g/ha (hairy beggarticks; [10]): 95%
pest or weed control at 16 g/ha (hairy beggarticks; [11]): 60%
pest or weed control at 31 g/ha (wild buckwheat; 31 g ai/ha): 100%
pest or weed control at 62 g/ha (wild buckwheat; 62 g ai/ha): 100%
pest or weed control at 125 g/ha (wild buckwheat; 125 g ai/ha): 100%
pest or weed control at 250 g/ha (wild buckwheat; 250 g ai/ha): 100%
pest or weed control at 31 g/ha (pigweed; 31 g ai/ha, scale 0 (no effect) to 100 (complete control), read-out: Plant response rating, Pigweed): 100%
pest or weed control at 62 g/ha (pigweed; 62 g ai/ha, scale 0-100, read-out: Plant response rating, Pigweed): 100%
pest or weed control at 125 g/ha (pigweed; 125 g ai/ha, scale 0-100, read-out: Plant response rating, Pigweed): 100%
pest or weed control at 250 g/ha (pigweed; 250 g ai/ha, scale 0-100, read-out: Plant response rating, Pigweed): 100%
pest or weed control at 31 g/ha (field poppy; 31 g ai/ha): 95%
pest or weed control at 62 g/ha (field poppy; 62 g ai/ha): 100%
pest or weed control at 125 g/ha (field poppy; 125 g ai/ha): 100%
pest or weed control at 250 g/ha (field poppy; 250 g ai/ha): 100%
plant injury at 31 g/ha (winter barley [4]; 31 g ai/ha): 10%
plant injury at 62 g/ha (winter barley [4]; 62 g ai/ha): 15%
plant injury at 125 g/ha (winter barley [4]; 125 g ai/ha): 25%
plant injury at 250 g/ha (winter barley [4]; 250 g ai/ha): 50%
plant injury at 31 g/ha (spring barley [5]; 31 g ai/ha): 15%
plant injury at 62 g/ha (spring barley [5]; 62 g ai/ha): 20%
plant injury at 125 g/ha (spring barley [5]; 125 g ai/ha): 30%
plant injury at 250 g/ha (spring barley [5]; 250 g ai/ha): 40%
pest or weed control at 31 g/ha (chickweed [6]; 31 g ai/ha): 70%
pest or weed control at 62 g/ha (chickweed [6]; 62 g ai/ha): 90%
pest or weed control at 125 g/ha (chickweed [6]; 125 g ai/ha): 100%
pest or weed control at 250 g/ha (chickweed [6]; 250 g ai/ha): 100%
